Laboratory results taken from ChEMBL document CHEMBL1139960 (Bioorg Med Chem Lett, 2007).
Calls of active or inactive are those of the source. No cut-off for these calls is given here.

How the values were obtained:
[1] = (§1) Antagonist activity at GABAC rho1 receptor expressed in Xenopus laevis oocytes assessed as reduction of GABA-induced chloride ion currents; assay type: functional, cell-based; conditions: Homo sapiens, Oocyte
[2] = system: Oocyte; assay: as §1; assay type: functional, cell-based; conditions: Homo sapiens
[3] = system: Oocyte; assay: Activity at GABAC rho1 receptor expressed in Xenopus laevis oocytes assessed as activation of GABA-induced chloride ion currents; assay type: cell-based; conditions: Homo sapiens

| SMILES | IC50 [1] | Activity [2] | Activity [3] |
| --- | --- | --- | --- |
| CCCCP(=O)(O)OCCN | 68.2 µM | – | – |
| CP(=O)(O)C1=CCNCC1 | 0.67 µM | – | – |
| NCCOP(=O)(O)Cc1ccccc1 | – | inactive | inactive |
